Source: paper PMC6496074, “The Evolution of Azole Resistance in Candida albicans Sterol 14α-Demethylase (CYP51) through Incremental Amino Acid Substitutions” (Antimicrobial Agents and Chemotherapy, 2019)
In brackets after ≈: the same amount, converted by molar mass.

How the values were obtained:
CaCYP51 Y132H+K143R = target: T1, CaCYP51 Y132H+K143R (Candida albicans, UniProt P10613, K143R/Y132H); assay: Azole ligand binding (type II difference spectra); conditions: for Kd: 4 μM protein, 22°C, ± standard deviation, triplicate, read-out: dissociation constant (Kd)
T1 construct: made in house; host or cells: E. coli DH5α (pCWori+)
Description: Studies of azole antifungal binding to 4 μM CaCYP51 proteins were performed as previously described ([53]) using quartz split cuvettes with a 4.5-mm light path. […] Azole antifungals were progressively titrated against the CaCYP51 proteins in 0.1 M Tris-HCl (pH 8.1) and 25% glycerol at 22°C, with equivalent volumes of dimethyl sulfoxide also being added to the CYP51-containing compartment of the reference cuvette. The absorbance difference spectra between 500 and 350 nm were determined after each incremental addition of azole, with binding saturation curves constructed from the change in the peak and trough absorbance (ΔApeak-trough) against the azole concentration. The dissociation constant (Kd) of the enzyme-azole complex for each azole was determined by nonlinear regression (Levenberg-Marquardt algorithm) using a rearrangement of the Morrison equation for tight ligand binding ([54], [55]). Tight binding is normally observed when the Kd for a ligand is similar to or lower than the concentration of the enzyme present ([56]). Where ligand binding was weak, the Michaelis-Menten equation was used to fit the data. Each binding determination was performed in triplicate. The chemical structures of the azole antifungals used in this study are shown in Fig. S5 in the supplemental material.

[1] = tested on: C. albicans SC5314 strain with CaCYP51 substitution K143R; assay: CLSI broth microdilution MIC; type: cell-based; conditions: Candida albicans, RPMI 1640, 24 h, 35°C, 50% reduction in growth
Excerpt: (§1) Strains expressing seven single mutations (Y132F, K143R, F145L, S405F, G448E, G450E, G464S) and three double mutations (Y132F+K143R, Y132F+F145L, D278N+G464S) were selected from a previous study ([36]). Two additional strains expressing the Y132H and D278N CYP51 gene mutations were created utilizing the SAT1/FLP cassette described previously ([44]). […] Successful transformants were screened on yeast-peptone-dextrose agar plates containing nourseothricin and confirmed via Southern hybridization. Genomic DNA from nourseothricin-screened transformants was digested with the HindIII restriction enzyme, and the resulting DNA digests were loaded on 1% agarose gels containing ethidium bromide. Digested samples were visualized briefly under UV light after approximately 2 h of electrophoresis (120 V) to confirm appropriate band separation. Lanes containing digested DNA in the gel were transferred onto a nitrocellulose membrane via vacuum suction, and DNA was cross-linked to the membrane through UV exposure. PCR amplification of the genomic DNA from parent isolate SC5314 using primers ERG11_Probe_F (5′-[…]-3′) and ERG11_Probe_R (5′-[…]-3′) generated a 254-bp product, used as a probe for the ERG11 gene locus. The probe was labeled and prepared using an Amersham AlkPhos direct labeling and detection system (GE Life Sciences) and hybridized to the membrane through overnight incubation at 55°C. Bands containing the hybridized, alkaline phosphatase-labeled probe corresponding to either wild-type ERG11 alleles (2,678 bp) or successfully replaced alleles with the SAT1/FLP cassette included (4,318 bp) or recycled (3,119 bp) were visualized with the CDP-Star chemiluminescent detection reagent. To confirm the sequence of the replaced ERG11 allele, a DNA fragment containing the ERG11 ORF and approximately 435 bp upstream of the start codon and 229 bp downstream of the ERG11 stop codon was PCR amplified using primers CaERG11_A_(ApaI) (5′-[…]-3′) and CaERG11_E_(XhoI) (5′-[…]-3′). The resulting DNA fragment was purified and Sanger sequenced on an ABI model 3130XL genetic analyzer with the following sequencing primers: CaERG11SeqA (5′-[…]-3′), CaERG11SeqB (5′-[…]-3′), CaERG11SeqC (5′-[…]-3′), CaERG11SeqD (5′-[…]-3′), CaERG11SeqE (5′-[…]-3′), and CaERG11SeqF (5′-[…]-3′).
(§2) Azole MICs were determined using the broth microdilution method described by the Clinical Laboratory and Standards Institute ([45], [46]). […] Measurements were read visually at 24 h after incubation at 35°C for a 50% reduction in growth from that in the drug-free control wells. MIC measurements were performed in duplicate, and the MIC was reported as the higher of two values for all strains tested. In cases where the duplicate MIC values were not identical, the higher of the two MIC values is reported. […] Additionally, no MICs differed by more than 2 dilutions for a given strain and drug.

[2] = tested on: C. albicans SC5314 strain with CaCYP51 substitution Y132F+K143R; assay: CLSI broth microdilution MIC; type: cell-based; conditions: Candida albicans, RPMI 1640, 24 h, 35°C, 50% reduction in growth
Excerpt: as §1, §2

[3] = tested on: C. albicans SC5314 strain with CaCYP51 substitution G450E; assay: CLSI broth microdilution MIC; type: cell-based; conditions: Candida albicans, RPMI 1640, 24 h, 35°C, 50% reduction in growth
Excerpt: as §1, §2

[4] = tested on: C. albicans SC5314 strain with CaCYP51 substitution Y132F; assay: CLSI broth microdilution MIC; type: cell-based; conditions: Candida albicans, RPMI 1640, 24 h, 35°C, 50% reduction in growth
Excerpt: as §1, §2

[5] = tested on: C. albicans SC5314 strain with CaCYP51 substitution Y132H; assay: CLSI broth microdilution MIC; type: cell-based; conditions: Candida albicans, RPMI 1640, 24 h, 35°C, 50% reduction in growth
Excerpt: as §1, §2

[6] = tested on: C. albicans SC5314 strain with CaCYP51 substitution Y132F+F145L; assay: CLSI broth microdilution MIC; type: cell-based; conditions: Candida albicans, RPMI 1640, 24 h, 35°C, 50% reduction in growth
Excerpt: as §1, §2

[7] = tested on: C. albicans SC5314 strain with CaCYP51 substitution F145L; assay: CLSI broth microdilution MIC; type: cell-based; conditions: Candida albicans, RPMI 1640, 24 h, 35°C, 50% reduction in growth
Excerpt: as §1, §2

[8] = tested on: C. albicans SC5314 strain with CaCYP51 substitution G464S; assay: CLSI broth microdilution MIC; type: cell-based; conditions: Candida albicans, RPMI 1640, 24 h, 35°C, 50% reduction in growth
Excerpt: as §1, §2

[9] = tested on: fluconazole-susceptible parent strain SC5314; assay: CLSI broth microdilution MIC; type: cell-based; conditions: Candida albicans; parent strain SC5314, no substitution; RPMI 1640, 24 h, 35°C, 50% reduction in growth
Excerpt: as §1, §2

[10] = tested on: C. albicans SC5314 strain with CaCYP51 substitution S405F; assay: CLSI broth microdilution MIC; type: cell-based, Candida albicans; conditions: for MIC: Candida albicans, SC5314, RPMI 1640, 24 h, 35°C, 50% reduction in growth
Excerpt: as §1, §2

[11] = tested on: C. albicans SC5314 strain with CaCYP51 substitution D278N+G464S; assay: CLSI broth microdilution MIC; type: cell-based, Candida albicans; conditions: for MIC: Candida albicans, SC5314, RPMI 1640, 24 h, 35°C, 50% reduction in growth
Excerpt: as §1, §2

[12] = tested on: C. albicans SC5314 strain with CaCYP51 substitution G448E; assay: CLSI broth microdilution MIC; type: cell-based, Candida albicans; conditions: for MIC: Candida albicans, SC5314, RPMI 1640, 24 h, 35°C, 50% reduction in growth
Excerpt: as §1, §2

[13] = tested on: C. albicans SC5314 strain with CaCYP51 substitution D278N; assay: CLSI broth microdilution MIC; type: cell-based; conditions: Candida albicans, RPMI 1640, 24 h, 35°C, 50% reduction in growth
Excerpt: as §1, §2

T1 sequence (P10613 whole entry, looked up, stated change not applied): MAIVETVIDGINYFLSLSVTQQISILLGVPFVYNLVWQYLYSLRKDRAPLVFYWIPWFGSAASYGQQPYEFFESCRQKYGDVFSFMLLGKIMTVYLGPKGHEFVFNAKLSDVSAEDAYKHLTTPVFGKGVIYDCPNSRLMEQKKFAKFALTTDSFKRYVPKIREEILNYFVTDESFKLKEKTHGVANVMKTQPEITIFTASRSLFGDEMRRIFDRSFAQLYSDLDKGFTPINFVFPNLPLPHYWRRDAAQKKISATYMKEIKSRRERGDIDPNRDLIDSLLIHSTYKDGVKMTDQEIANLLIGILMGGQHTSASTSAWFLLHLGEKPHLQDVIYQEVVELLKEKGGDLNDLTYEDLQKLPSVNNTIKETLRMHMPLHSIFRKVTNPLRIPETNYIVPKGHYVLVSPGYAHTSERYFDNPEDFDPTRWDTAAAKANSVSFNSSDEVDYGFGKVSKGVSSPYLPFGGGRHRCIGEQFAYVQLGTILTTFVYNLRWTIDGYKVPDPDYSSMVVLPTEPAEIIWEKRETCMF

Compound	Kd, fold larger than wild-type enzyme (CaCYP51 Y132H+K143R) [fold]	Kd (CaCYP51 Y132H+K143R) [µM]	MIC [1] [µg/mL]	MIC [2] [µg/mL]	MIC [3] [µg/mL]	MIC [4] [µg/mL]	MIC [5] [µg/mL]	MIC [6] [µg/mL]	MIC [7] [µg/mL]	MIC [8] [µg/mL]	MIC [9] [µg/mL]	fold increase in MIC over SC5314 [10]	MIC [10] [µg/mL]	fold increase in MIC over SC5314 [11]	MIC [11] [µg/mL]	MIC [12] [µg/mL]	MIC [13] [µg/mL]	fold increase in MIC over SC5314 [12] [fold]
OC(Cn1cncn1)(Cn1cncn1)c1ccc(F)cc1F [Fluconazole, fluconazole]	362	18.1	16 (≈ 52.2 µM)	32 (≈ 104 µM)	16 (≈ 52.2 µM)	8 (≈ 26.1 µM)	2 (≈ 6.53 µM)	32 (≈ 104 µM)	4 (≈ 13.1 µM)	8 (≈ 26.1 µM)	1 (≈ 3.27 µM)	at least 2 fold	4 (≈ 13.1 µM)	at least 2 fold	8 (≈ 26.1 µM)	8 (≈ 26.1 µM)	–	–
CCC(C)n1ncn(-c2ccc(N3CCN(c4ccc(OCC5COC(Cn6cncn6)(c6ccc(Cl)cc6Cl)O5)cc4)CC3)cc2)c1=O (stereo not shown) [Itraconazole, itraconazole]	–	0.387 ± 0.117	0.5 (≈ 0.709 µM)	0.25 (≈ 0.354 µM)	0.25 (≈ 0.354 µM)	0.25 (≈ 0.354 µM)	0.25 (≈ 0.354 µM)	0.25 (≈ 0.354 µM)	0.25 (≈ 0.354 µM)	0.25 (≈ 0.354 µM)	0.06 (≈ 0.085 µM)	–	0.25 (≈ 0.354 µM)	–	0.25 (≈ 0.354 µM)	0.25 (≈ 0.354 µM)	0.125 (≈ 0.177 µM)	–
CC[C@@H]([C@H](C)O)n1ncn(-c2ccc(N3CCN(c4ccc(OC[C@@H]5CO[C@@](Cn6cncn6)(c6ccc(F)cc6F)C5)cc4)CC3)cc2)c1=O [Posaconazole, posaconazole]	–	0.162 ± 0.059	≤ 0.03	≤ 0.03	≤ 0.03	≤ 0.03	≤ 0.03	≤ 0.03	≤ 0.03	≤ 0.03	≤ 0.03	–	≤ 0.03	–	≤ 0.03	0.06 (≈ 0.0856 µM)	≤ 0.03	2
C[C@@H](c1ncncc1F)[C@](O)(Cn1cncn1)c1ccc(F)cc1F [Voriconazole, voriconazole]	–	–	0.5 (≈ 1.43 µM)	1 (≈ 2.86 µM)	0.5 (≈ 1.43 µM)	0.5 (≈ 1.43 µM)	0.25 (≈ 0.716 µM)	1 (≈ 2.86 µM)	0.5 (≈ 1.43 µM)	0.25 (≈ 0.716 µM)	≤ 0.03	–	0.25 (≈ 0.716 µM)	–	0.25 (≈ 0.716 µM)	0.25 (≈ 0.716 µM)	≤ 0.03	–
